# Source: patent publication US20170258817A1, “FOSFESTROL FOR USE IN CURATIVE OR PALLIATIVE TREATMENT OF PROSTATE CANCER” (CHAMAELEO PHARMA BVBA, priority 2012, published 2017)
# What was measured:
# [1] = tested on: prostate cancer; details: 5 mg of DES p.o. per day; cited from earlier work
# [2] = buccal administration; cited from earlier work
# [3] = tested on: prostate cancer cells; details: cited from earlier work
# [4] = tested on: DU-145 prostate cancer cells; details: through inhibition of microtubule formation; cited from earlier work
# [5] = tested on: DU-145 hormone-independent prostate cancer cell line; experiment: in vitro direct cytotoxicity, Cell titer blue viability assay; format: cell-based; details: Homo sapiens; DU-145, 72 hrs incubation
# Description: (§1) Cells were maintained in vitro in RPMI 1640 containing 10% (v/v) heat inactivated fetal bovine serum (FBS) and 2 mM L-glutamine (growth media) at 37° C. in 5% CO2 and humidified conditions. Cells were harvested, washed, re-suspended into growth medium and counted. The cells were re-suspended into assay media (RPMI 1640+1% (v/v) heat inactivated FBS+ and 2 mM L-glutamine) at 0.5×10^5 cells/ml for DU-145 cells and 1×10^5 for LNCaP cells, and plated into 96-well assay plates (Corning, black-wall plates) and 50 μl/well aliquots.
# (§2) Plates were incubated O/N at 37° C. in 5% humidified CO2 prior to addition of the compounds. […] Fosfestrol was dissolved in sterile water at stock concentration of 60 mM. Stocks of all compounds were then serially diluted. Final concentrations to which cells were exposed were: 300, 150, 75, 37.5, 18.75, 9.4, 4.7, 2.3, 1.2 and 0.6 μM. Positive control was Taxotere. Taxotere was diluted in 100% DSMO to give a stock concentration of 1 mM. Stock was serial diluted and final concentration to which cells were exposed was: 1000, 333.3, 111.1, 37.0, 12.3, 4.1, 1.4, 0.5, and 0.2 nM.
# (§3) Plates were incubated for 72 hrs at 37° C. in 5% humidified CO-2 after addition of the compounds. Viability of the cells was assessed with the Cell titer blue® (Promega) assay. […] Fluorescence was measured with a Flex II station plate reader. […]
# [6] = tested on: LNCaP hormone-dependent prostate cancer cell line; experiment: as above; format: cell-based; details: Homo sapiens, 72 hrs incubation
# Description: as §1, §2, §3
Structure (SMILES),"increase of non-cancer related deaths, mostly cardiovascular [1]","DES plasma level, on average [2]",induction of thromboembolic activator (Fibrinogen) [2],DES concentrations that do not influence prostate cancer cell growth [3],minimal concentration of DES to induce some cytotoxic effects [3],effect on DU-145 prostate cancer cells [4],IC50 [5],IC50 [6]
"CC/C(=C(/CC)c1ccc(O)cc1)c1ccc(O)cc1 [DES, diethylstilbestrol]",36%,11 ng DES/ml,without inducing a thromboembolic activator (Fibrinogen),up to 100 ng/ml,1 µg/mL,cytotoxic effects,,
CC(=O)O[C@@]12CO[C@@H]1C[C@H](O)[C@@]1(C)C(=O)[C@H](O)C3=C(C)[C@@H](OC(=O)[C@H](O)[C@@H](NC(=O)OC(C)(C)C)c4ccccc4)C[C@@](O)([C@@H](OC(=O)c4ccccc4)[C@H]21)C3(C)C [Taxotere],,,,,,,4 nM,2 nM
